pIC50: −log10 of the molar value. Entries after “also recorded” stand apart in the source; their conditions may differ.
Assays:
Format in all cases: cell-based
TNF-a downstream genes = assay: TNF-a-dependent gene expression in three cell lines (RT-qPCR, secondary assays, FIG. 12); details: 10 μM compound, 5 ng/ml TNF-a, 24 hours, THP-1, 293T, HepG2 cells
Protocol: (§1) THP-1 (FIG. 12A), 293T (FIG. 12B), and HepG2 (FIG. 12C) cells were cultured and stimulated with 5 ng/ml TNF-a for 24 hours. During the treatment, 10 μM of each compound was added. RT-qPCR was used to analyze the expression levels of selected TNF-a downstream genes (IL1b, CCL4 and CXCL1 in THP-1 cells in FIG. 12A; IL18, VCAM, and CXCL10 in 293T cells in FIG. 12B; and IL18, CXCL1, and CXCL5 in HepG2 cells in FIG. 12C).

[1] = test system: IL17A-dependent gene expression in mouse keratinocytes; assay: IL17A-dependent gene expression in mouse keratinocytes (RT-qPCR, secondary assay, FIG. 11); details: 10 μM compound, 5 ng/ml IL17A, 24 hours
Protocol: Mouse keratinocytes were cultured and stimulated with 5 ng/ml IL17A for 24 hours. During the treatment, 10 μM of each compound was added, and reverse transcription-quantitative polymerase chain reaction (RT-qPCR) was used for the gene expression level analyses of the following genes: cxcl1, cxcl2, cxcl5, 24p3, zc3h12a, S100a8, and S100a9. The top-down order of the treatment conditions indicated in the legend correspond to the left-right order of the bars for each gene. […] Compounds C770-0711 (2), C770-0720 (3), 60546479 (6), C881-0413 (9), and LAS 51593897 (11) are also of interest (see grey boxes).

[2] = molecular target: T1, IL-17 receptor (the IL-17RA-IL-17RC heterodimer) (Mus musculus, UniProt Q60943+Q8K4C2, F156E); assay: IL-17A-receptor (IL-17RA/IL-17RC) GFP reporter cell screen; details: for specificity for IL-17A-receptor reporter over other cytokine receptor reporters: in words; for Emax: reducing IL-17A-receptor reporter activities, maximal effect at high compound concentrations, read-out: Emax
T1 sequence (Q60943 32-358): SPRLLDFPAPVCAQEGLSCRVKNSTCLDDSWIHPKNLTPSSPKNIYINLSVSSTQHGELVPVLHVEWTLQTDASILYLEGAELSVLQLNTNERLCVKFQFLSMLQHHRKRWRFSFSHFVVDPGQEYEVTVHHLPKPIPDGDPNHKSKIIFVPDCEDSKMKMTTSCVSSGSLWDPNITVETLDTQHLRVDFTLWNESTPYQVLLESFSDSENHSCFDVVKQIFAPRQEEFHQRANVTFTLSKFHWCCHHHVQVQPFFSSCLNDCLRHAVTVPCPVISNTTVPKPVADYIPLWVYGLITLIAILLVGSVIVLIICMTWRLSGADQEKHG
T1 sequence (Q8K4C2 22-500 F156E): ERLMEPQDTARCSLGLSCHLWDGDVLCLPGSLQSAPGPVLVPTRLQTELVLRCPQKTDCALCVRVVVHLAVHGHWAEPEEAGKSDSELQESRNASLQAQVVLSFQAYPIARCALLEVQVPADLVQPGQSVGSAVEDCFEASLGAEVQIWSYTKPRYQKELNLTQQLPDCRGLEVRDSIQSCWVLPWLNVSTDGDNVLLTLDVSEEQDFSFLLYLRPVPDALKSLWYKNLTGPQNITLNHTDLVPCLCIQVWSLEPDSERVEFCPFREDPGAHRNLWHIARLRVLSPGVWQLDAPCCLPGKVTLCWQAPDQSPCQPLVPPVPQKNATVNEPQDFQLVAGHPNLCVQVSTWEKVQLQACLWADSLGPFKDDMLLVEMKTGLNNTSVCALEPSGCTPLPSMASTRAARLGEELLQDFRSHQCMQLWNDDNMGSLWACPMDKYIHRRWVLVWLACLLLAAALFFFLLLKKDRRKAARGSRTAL
T1 sequence (Q62386 26-158 partner): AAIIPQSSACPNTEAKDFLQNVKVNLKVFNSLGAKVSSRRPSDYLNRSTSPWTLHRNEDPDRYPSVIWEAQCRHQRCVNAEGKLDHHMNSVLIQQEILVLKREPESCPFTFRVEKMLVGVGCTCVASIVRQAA
Protocol: (§2) FIG. 5 is a dot plot showing the identification of small-molecule compounds that reduce IL-17A or TNF-a receptor activities. Small-molecule screens were performed with 114,665 compounds. Individual compounds were added to IL-17A-reporters or TNF-a-reporters following the addition of respective ligands such as IL-17A or TNF-a (25 ng/ml). The reporter cells were then incubated for additional 48 hours before subjecting them for microscopic analyses (GFP percentage was measured by microscope). Anti-IL17A and anti-TNFa antibodies were used as the positive controls.
To identify small molecule compounds that control IL-17R activity, a screening platform was used to monitor IL-17a binding to its receptor. Upon IL-17a binding to its receptor subunit A (IL-17RA), another receptor subunit IL-17RC is recruited, and these two subunits form a heterodimer. In the exemplary reporter system, a transcription factor (tTA) was tethered, via a protease cleavage site, to IL-17RA. In addition, a tobacco etch virus (TEV) protease was fused to the receptor subunit IL-17RC. Upon the IL-17a-dependent recruitment of IL-17RC-TEV to IL-17RA-tTA, the tTA is cleaved off from its membrane anchor IL-17RA. The released tTA then enters the nucleus and activates the reporter gene (e.g., in this case, GFP). The IL-17RA/RC reporter system responds highly selectively to IL-17a, but not to other related IL-17 family cytokines (except IL-17f).
(§3) Two thousand reporter cells per well (384-well plates) were seeded in 30 ul cell culture medium with either IL-17A (25 ng/ml, unless otherwise indicated) or TNFa ligand (25 ng/ml, unless otherwise indicated); additional screens were performed with IL-17A at 7.5 ng/ml. Then 100 nl of the individual compound was added by a pin transfer and cultured for two days in a CO2 incubator. For the cell viability test, 10 ul HOECHST 33342 was added and incubated for 10 min, followed by the addition of 10 ul 4% PFA. After a 10 min incubation, the reporter cells were washed twice with phosphate-buffered saline (PBS) and kept in 30 ul PBS. The images were acquired and analyzed using an IMAGEXPRESS confocal microscope. For storage, plates were sealed with black light-absorbing films.

[3] = molecular target: T2, TNF-a receptor (TNF-R1 reporter cells) (Homo sapiens, UniProt P19438); assay: TNF-a-receptor GFP reporter cell screen; details: for specificity for TNF-a-receptor reporter over other cytokine receptor reporters: in words; for pIC50 / Emax: reducing TNF-a-receptor reporter activities; for pIC50: GFP percentage by microscope, 48 hours; for Emax: maximal effect at high compound concentrations, read-out: Emax
T2 construct: expressed in transfected cells; development described in WO2022125865A2
Protocol: as §2
The IL-17RA/IL-17RC reporter system was used to identify the IL-17a-specific immune modulatory agents, as described herein (see e.g., compounds (1)-(16)). Furthermore, the IL-17A systems and methods were applied to generate other cytokine/cytokine receptor reporter system (tTA fused onto one receptor subunit via a protease cleavage site, TEV fused to another receptor subunit, optimal linkers inserted between different proteins to ensure high signal-to-background ratio; e.g., for identifying TNF-α-specific immune modulatory agents). The screening platform provided herein was used to identify immune modulatory agents including, but not limited to, small molecules and proteins that modulate IL-17A or TNF-α cytokine signaling.
as §3

[4] = test system: TNF-a downstream genes in THP-1 cells; assay: TNF-a-dependent gene expression in THP-1 cells (RT-qPCR, FIG. 12A); details: 10 μM compound, 5 ng/ml TNF-a, 24 hours; IL1b, CCL4, CXCL1
Protocol: as §1

[5] = test system: TNF-a downstream genes in HepG2 cells; assay: TNF-a-dependent gene expression in HepG2 cells (RT-qPCR, FIG. 12C); details: 10 μM compound, 5 ng/ml TNF-a, 24 hours; IL18, CXCL1, CXCL5
Protocol: as §1

[6] = test system: TNF-a downstream genes in 293T cells; assay: TNF-a-dependent gene expression in 293T cells (RT-qPCR, FIG. 12B); details: 10 μM compound, 5 ng/ml TNF-a, 24 hours; IL18, VCAM, CXCL10
Protocol: as §1

For `CC(C)CCN1C2CCNc3ccccc3CN(C(=O)CCCn3cncn3)CC1CC2` (racemic) [Compound 43], the “effect on TNF-a-dependent gene expression” value (TNF-a downstream genes) was “inhibitory effects against some of TNF-a downstream genes”.
In the case of `CCOC(=O)c1ccc(NC(=O)CCc2c(C)nc3c(c(C)nn3C)c2C)cc1` [Compound 8], the “effect on IL17A-dependent gene expression” value [1] was “inhibitory activities; also recorded: robust inhibitory effects”, the “specificity for IL-17A-receptor reporter over other cytokine receptor reporters” value [2] was “reduce IL-17A-, not TNF-a-, receptor reporter activities” and the Emax [2] was 94%.
`Cc1ccc(NC(=O)Cn2cc3c(n2)CCCC3)cc1Cl` [Compound 9] was tested, and the “effect on IL17A-dependent gene expression” value [1] was “inhibitory activities; also recorded: robust inhibitory effects”, the “specificity for IL-17A-receptor reporter over other cytokine receptor reporters” value [2] was “reduce IL-17A-, not TNF-a-, receptor reporter activities” and the Emax [2] was 67%.
For `CC(=O)N1CCCN(S(C)(=O)=O)CCN(Cc2cccc(F)c2O)Cc2ccccc21` [Compound 15], the “effect on TNF-a-dependent gene expression” value (TNF-a downstream genes) was “inhibitory effects against some of TNF-a downstream genes”.
For `O=c1ccc(-c2ccccc2)nn1Cc1c(F)cccc1Cl` [Compound 19], the “effect on TNF-a-dependent gene expression” value (TNF-a downstream genes) was “inhibitory effects against some of TNF-a downstream genes”, the “specificity for TNF-a-receptor reporter over other cytokine receptor reporters” value [3] was “reduce TNF-a-, not IL-17A-, receptor reporter activities” and the pIC50 [3] was 5.13. The Emax [3] was 98%, the “effect on TNF-a-dependent gene expression in THP-1 cells” value [4] was “robust inhibitory effects” and the “effect on TNF-a-dependent gene expression in HepG2 cells” value [5] was “enhanced effects”. For the same molecule, the “effect on TNF-a-dependent gene expression in 293T cells” value [6] was “enhanced effects”.
In the case of `O=C(CSc1c2c(nc3ccccc13)CCC2)Nc1ccc(F)cc1` [Compound 39], the “effect on TNF-a-dependent gene expression” value (TNF-a downstream genes) was “inhibitory effects against some of TNF-a downstream genes; also recorded: robust inhibitory effects”, the “specificity for TNF-a-receptor reporter over other cytokine receptor reporters” value [3] was “reduce TNF-a-, not IL-17A-, receptor reporter activities” and the pIC50 [3] was 5.05. It also gave an Emax [3] of 78%.

Source: patent US20250248980A1, “IMMUNE MODULATORY AGENTS” (PRESIDENT AND FELLOWS OF HARVARD COLLEGE, priority 2022, published 2025)
